# Measurements published in paper PMC3878827, “Synthesis and biological characterisation of ^18F-SIG343 and ^18F-SIG353, novel and high selectivity σ2 radiotracers, for tumour imaging properties” (EJNMMI Research, 2013).
# “And” between values parts separate entries of the source, which are not always exact repeats. Equal values may be shown once.
# Columns and labels:
# [1] = system: A375 (human amelanotic melanoma) cells; experiment: Cell uptake studies in A375 cells; type: cell-based
# Protocol: (§1) A375 (human amelanotic melanoma) cells were purchased from American Type Culture Collection (Manassas, VA, USA) and cultured in RPMI-1640 medium (Sigma-Aldrich, St. Louis, MO, USA) supplemented with 10% foetal calf serum (Invitrogen, CA, USA) and 2 mM L-glutamine (Sigma). Cells were maintained in 175 cm^2 flasks in at 37°C in 5% CO2:95% atmosphere humidified incubator and grown to sub-confluent monolayers before being detached using trypsin for use in animal models.
# In 24-well culture plates, 2.5 × 10^5 cells were seeded in complete medium and left to attach overnight. The following day, the number of cells per well was counted in triplicate. Before incubation with the radiotracer, the growth media was removed and the cells were washed once with warm PBS to remove all traces of growth media. ^18F-SIG343 or ^18F-SIG353 was formulated in warm PBS containing 0.1% Tween-80. Freshly prepared radiotracer (0.37 MBq in 500 μL) was added and the cells were incubated at 37°C for 2, 15, 30, 60 and 120 min. Uptake was terminated by removing the tracer solution and washing cells with ice-cold PBS. Subsequently, the cells were lysed with 500 μL of 0.2 N NaOH. The radioactivity in the cell lysate was measured with a Wallac 1480 γ-counter (PerkinElmer, MA, USA). The results were expressed as percentage of applied dose per 1 × 10^5 cells. All activities were corrected for decay. Optimal uptake time will be selected for inhibition cell uptake studies.
# [2] = system: A375 (human amelanotic melanoma) cells; experiment: Cell uptake inhibition studies in A375 cells with competing σ ligands; type: cell-based; conditions: 15 min
# Protocol: as §1
# Cells were prepared as described for uptake studies. Prior to the addition of the radiotracer, 400 μL of blocking drug (6.25 μmol/L in PBS) or PBS (for controls) was added to the wells. Freshly prepared radiotracer (0.37 MBq in 100 μL) was added, and the cells were incubated at 37°C for 15 min as the optimal time previously determined by the cell uptake studies. Uptake was terminated as described for uptake studies. The percentage of uptake in the treatment groups relative to the control group was determined.
# [3] = PET/CT imaging studies in A375 tumour-bearing mice; type: in vivo; conditions: 120-min PET scan
# Protocol: The mouse was anaesthetised via inhalant isoflurane (Forthane, Abbott Laboratories, IL, USA) (5% induction, 1% to 3% maintenance in 200 mL/min oxygen). Respiration and heart rates of the animal were monitored (BioVet; m2m Imaging Corp, Cleveland, OH, USA) during the entire scanning period. The core body temperature of the animals was maintained via a temperature-controlled heating pad. The mouse was injected intravenously with 4.6 to 16.7 MBq of ^18F-SIG343 or ^18F-SIG353, with a constant mass of the unlabelled compounds of 0.06 nmol in 100 μL of saline (n = 3). A 120-min PET scan was performed on an Inveon multimodality positron emission tomography-computed tomography (PET/CT) system (Siemens Medical Solutions, Knoxville, TN, USA) followed by a 10-min CT scan on each subject for anatomical information. Image acquisition commenced simultaneously with radiotracer injection. The data was histogrammed into 25 consecutive frames, and activity volumes were reconstructed with an iterative reconstruction (OSEM/MAP) including attenuation and scatter correction, achieving a reconstructed spatial resolution of 1.5 mm. […] Regional activity data (Bq/cc) were extracted from nine selected volumes/regions of interest (VOIs/ROIs) where σ receptor distribution was reported and the tail and expressed as percentage of injected dose per cubic centimetres (%ID/cc).
# [4] = Metabolite studies (radio-TLC and radio-HPLC) in A375 tumour-bearing mice; type: in vivo; conditions: i.v., mean ± SD, n = 3
# Protocol: The amount of intact ^18F-SIG343 and ^18F-SIG353 in the plasma, urine, tumour and brain cortex was quantified by thin layer chromatography (TLC) and radio-HPLC analysis. Mice were injected with 20 MBq of the radiotracer in 100 μL of saline. Mice were sacrificed 15, 60 and 120 min post injection of radiotracer. Whole organ samples of brain cortex and tumour samples (10 to 60 mg, minced) were added to unlabelled SIG343 or SIG353 (5 μL; 1 mg/mL), KF (5 μL; 1 mg/mL), MeCN (0.3 mL) and water (0.2 mL). Samples were exposed to an ultrasonic probe (Ultrasonic processor, Misonix Inc., Farmingdale, NY, USA) for 2 min before being centrifuged (5,000 rpm, 5 min). Plasma (50 μL) or urine (10 μL) samples were added to unlabelled SIG343 or SIG353, KF and 0.5 mL MeCN. Plasma samples were centrifuged (Heraeus Biofuge PrimoR, Thermo Fisher Scientific, Hudson, NH, USA; 5,000 rpm, 5 min), and the supernatant was removed and the radioactivity of the precipitated pellets was measured using a gamma counter to determine the extraction efficiency. If necessary, multiple extractions were performed to ensure maximum recovery of the radioactivity. An appropriate amount of the supernatant, based on the activity level (cpm), was collected (approximately 100 μL), diluted with water (up to 1.5 mL) for HPLC analysis or evaporated to dryness under vacuum for TLC analysis.
# The TLC sample was reconstituted in methanol (25 to 50 μL) and mixed before being applied to the concentrating zone of the silica TLC plate. In a separate lane, the corresponding ^18F-labelled and ^19F-standard was also spotted. The TLC solvent systems of EtOAc/MeOH (70:30) were utilised for ^18F-SIG343 (rf 0.50) and ^18F-SIG353 (rf 0.55). The UV of the standard was identified using a UV lamp, while the movement and integration of the radioactive spots were visualised and measured using a phosphorimager (BAS 2500 Phosphorimager, Fujifilm, Tokyo, Japan) with Fujifilm Multigage 3.0 software. The intact radiotracer was identified as the radioactive spot containing the identical rf value to the corresponding ^19F-standard seen under the UV lamp. The integration of the active spot in relation to all the activity in the TLC lane gave the percentage of intact radiotracer.
# Radio-HPLC analysis was performed following the method of Hilton et al.. A pre-column (Waters Oasis HLB, 25 μm, 20 × 3.9 mm) and a reversed phase HPLC column (Phenomenex Bondclone C18, 10 μm, 250 × 4.6 mm or Phenomenex Synergi Max-RP 80A C18, 4 μm, 250 × 4.6 mm) in series, with a switching valve between columns was utilised. The pre-column was washed with 1% acetonitrile in water for 3 min at 1.5 mL/min and then the solvent direction was switched to include the HPLC column. Both columns in series were then eluted over 10 min. The radioactivity peak corresponding to the authentic radiotracer was compared to the total activity registered in the radiochromatogram to give the fraction of unchanged radiotracer in the sample.
# [5] = declined after 60 min (up to 120 min)
Tumour uptake by PET imaging [3] [%ID/cc],"Unchanged form, Cortex ([4]; 15 min post injection) [%]","Unchanged form, Plasma ([4]; 15 min post injection) [%]","Unchanged form, Tumour ([4]; 15 min post injection) [%]","Unchanged form, Urine ([4]; 15 min post injection)","Unchanged form, Cortex ([4]; 60 min post injection) [%]","Unchanged form, Plasma ([4]; 60 min post injection) [%]","Unchanged form, Tumour ([4]; 60 min post injection) [%]","Unchanged form, Urine ([4]; 60 min post injection) [%]","Unchanged form, Plasma ([4]; 120 min post injection) [%]","Unchanged form, Urine ([4]; 120 min post injection) [%]","Unchanged form, Tumour ([4]; 120 min post injection)",Structure (SMILES),"Cell uptake, percentage of applied dose per 1 × 10^5 cells ([1]; after 2 min, 37°C)","Cell uptake, percentage of applied dose per 1 × 10^5 cells ([1]; between 15 and 60 min (peak/plateau)) [%]","Cell uptake, percentage of applied dose per 1 × 10^5 cells [1, 5] [%]",Change of cell uptake of radiotracer versus control ([2]; competitor (+)-pentazocine 5 μM),Change of cell uptake of radiotracer versus control ([2]; competitor haloperidol 5 μM) [%],Change of cell uptake of radiotracer versus control ([2]; competitor unlabelled SIG343 5 μM) [%],"Change of cell uptake of radiotracer versus control ([2]; any of the competing σ ligands ((+)-pentazocine, haloperidol, unlabelled SIG353) 5 μM)"
0.9,87 ± 3.2,49 ± 7.5,79 ± 4.6,13% and 13 ± 1.2%,83 ± 0.8,23 ± 3.8,85 ± 3.1,15 ± 4.3,16 ± 2.8,11 ± 5.4,–,COc1cc2c(cc1OC)CN(CCCCN1C(=O)c3ccc([18F])cc3C1=O)CC2 [^18F-SIG343],approximately 2%,2,1.6,no significant blocking effect,-72,-69,–
1.3,85,60 ± 3.0,81 ± 4.5,5% and 5 ± 1.3%,87,27 ± 5.1,85 ± 2.4,4 ± 0.4,17 ± 2.9,5 ± 1.2,65% and 65 ± 8.9%,COc1cc2c(cc1OC)CN(CCCCCN1C(=O)c3ccc([18F])cc3C1=O)CC2 [^18F-SIG353],approximately 2%,–,2.3,–,–,–,not significantly reduced
